Laboratory results: patent publication US20020026053A1, “Novel 3-(substituted) -2- indolinones compounds and use thereof as inhibitors of protein kinase activity” (priority 1997, published 2002)

The compounds below were run on FLK-1 receptor (assay: FLK-1 Assay (cellular/catalytic ELISA, VEGF-stimulated phosphotyrosine)). Settings: protocol P.110.
Format: cell-based
Set-up: concentration or dose not given beside the values
Summary of the method: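 Receptor phosphotyrosine ELISA: Flk-1-expressing NIH3T3 C7#3 cells, starved overnight in 0.1% FBS medium, received compound (1:200 final dilution, 0.5% DMSO) for 2 h at 37 °C, then VEGF. Anti-FLK-1-captured receptor was probed with anti-phosphotyrosine UB40 and peroxidase/ABTS read-out, relative to cells without compound.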

**Q.** For `COc1ccc(C=C2C(=O)Nc3c(Br)cc(Br)c(C)c32)cc1O` [10738/H04], which “Flk Kinase % Inhibition (P.110)” value is on record?
**A.** −17.9%

**Q.** For `Cc1c(Br)cc(Br)c2c1C(=Cc1cc(O)ccc1[N+](=O)[O-])C(=O)N2` [10738/H05], which “Flk Kinase % Inhibition (P.110)” value is on record?
**A.** −17.9%

**Q.** How did the “Flk Kinase % Inhibition (P.110)” value turn out when `Cc1c(Br)cc(Br)c2c1C(=Cc1cccc(O)c1O)C(=O)N2` [10738/H06] was run?
**A.** −44.8%
